Assay results taken from the supplement of paper PMC10307832.

Compound: O=C(CCCCCCC(=O)Nc1ccccc1)NO [Vorinostat]
Experiment: relative viability (nuclei count vs DMSO), 5 days (fraction); higher = more cells survive
Summary of the method: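 In 1536-well plates, lung cancer cell lines rested overnight at 37 °C before five library-drug doses (not always all listed), √10 apart, were pinned onto vehicle-anchored plates. Nuclei were counted with MetaXpress from 4× Hoechst images taken after 5 days without medium change. Viability compares treated-well with vehicle-well nuclei as a median over plates, and plates needed control CV below 25% plus at least one doubling to pass.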

Cell Line | relative viability (0.253 µM) | relative viability (0.8 µM) | relative viability (1 µM, anchor plate) | relative viability (2.53 µM) | relative viability (8 µM)
HCC-827 | 1.15 | 1.12 | 0.882 | 0.934 | 0.416
HCC-78 | 0.963 | 0.674 | 0.468 | 0.3 | 0.221
201T | 1.07 | 0.848 | 0.946 | 0.855 | 0.324
LK-2 | 1.18 | 0.67 | 0.309 | 0.207 | 0.0969
NCI-H2342 | 0.936 | 1.02 | 0.756 | 0.756 | 0.458
HCC-366 | 1.01 | 0.956 | 0.371 | 0.524 | 0.045
HARA | 1.03 | 0.593 | 0.561 | 0.434 | 0.121
COR-L 105 | 1.42 | 0.858 | 0.868 | 0.501 | 0.237
NCI-H460 | 1.09 | 0.955 | 0.715 | 0.144 | 0.0458
HCC-44 | 0.995 | 0.91 | 1.09 | 0.654 | 0.161
NCI-H1563 | 1.07 | 0.856 |  | 0.629 | 0.513
NCI-H1650 | 1.03 | 0.758 | 0.583 | 0.325 | 0.163
NCI-H727 | 1.11 | 0.813 | 1.19 | 0.514 | 0.31
COR-L23 | 1.09 | 0.763 | 0.426 | 0.18 | 0.0822
NCI-H522 | 1.1 | 0.869 | 0.962 | 0.768 | 0.299
NCI-H596 | 1.03 | 0.799 | 0.621 | 0.797 | 0.311
NCI-H1993 | 1.08 | 1 | 0.823 | 0.705 | 0.56
NCI-H2023 | 1.22 | 0.771 | 0.709 | 0.209 | 0.0744
NCI-H3122 | 1.06 | 1.04 | 0.986 | 0.737 | 0.156
NCI-H441 | 1.13 | 1.05 | 0.773 | 0.418 | 0.18
SW 1573 | 1.25 | 0.938 | 0.84 | 0.485 | 0.0973
RERF-LC-KJ | 1.04 | 0.911 | 0.698 | 0.405 | 0.246
NCI-H838 | 1.15 | 1.03 | 0.763 | 0.565 | 0.191
HCC-15 | 1.16 | 0.909 | 0.885 | 0.655 | 0.145
SK-LU-1 | 1.19 | 0.924 | 0.781 | 0.668 | 0.19

Cell Line | relative viability (0.253 µM) | relative viability (0.8 µM) | relative viability (1 µM, anchor plate) | relative viability (2.53 µM) | relative viability (8 µM)
NCI-H1666 | 1.05 | 0.955 | 1.01 | 0.514 | 0.348
H3255 | 1.02 | 1.13 | 0.791 | 0.573 | 0.286
SK-MES-1 | 1.11 | 1.02 | 1.08 | 0.555 | 0.203
NCI-H2228 | 0.93 | 0.802 | 0.654 | 0.476 | 0.146
ABC-1 | 1.16 | 0.707 | 1.23 | 0.32 | 0.171
UMC-11 | 1.1 | 0.617 | 0.403 | 0.201 | 0.103
NCI-H1734 | 1.28 | 0.982 | 0.832 | 0.688 | 0.15
NCI-H1355 | 1.16 | 0.852 | 0.673 | 0.598 | 0.192
NCI-H661 | 1.11 | 0.974 | 0.8 | 0.548 | 0.351
NCI-H358 | 1.33 | 1.05 | 0.697 | 0.255 | 0.118
NCI-H1793 | 1.37 | 0.951 | 0.821 | 0.817 | 0.29
EPLC-272H | 0.976 | 0.767 | 0.533 | 0.373 | 0.157
NCI-H1792 | 0.965 | 0.762 |  | 0.371 | 0.108
NCI-H1395 | 0.91 | 0.919 | 0.834 | 0.631 | 0.387
NCI-H2087 | 1.03 | 0.634 | 0.737 | 0.246 | 0.0956
PC-14 | 1.25 | 0.886 | 0.725 | 0.171 | 0.051
LXF-289 | 1.1 | 1.01 | 0.791 | 0.624 | 0.195
NCI-H23 | 1.14 | 0.985 | 0.653 | 0.541 | 0.136
NCI-H322M | 1.17 | 0.87 | 0.915 | 0.6 | 0.385
NCI-H1651 | 1.01 | 0.928 | 0.579 | 0.203 | 0.0791
NCI-H1755 | 1.08 | 1.01 | 0.735 | 0.566 | 0.292
LCLC-103H | 1.08 | 0.961 | 0.781 | 0.812 | 0.272
A549 | 1.05 | 0.848 |  | 0.337 | 0.0442
LU99A | 1.1 | 0.809 | 0.537 | 0.513 | 0.209
NCI-H1975 | 1.08 | 0.817 | 0.707 | 0.449 | 0.14

Cell Line | relative viability (0.253 µM) | relative viability (0.8 µM) | relative viability (1 µM, anchor plate) | relative viability (2.53 µM) | relative viability (8 µM)
NCI-H1703 | 1.41 | 1.39 |  | 1.03 | 0.244
LOU-NH91 | 1.09 | 0.918 | 0.94 | 0.829 | 0.423
HOP-62 | 1.2 | 0.882 | 0.679 | 0.528 | 0.113
LC-2-ad | 0.989 | 0.722 | 0.691 | 0.228 | 0.155
NCI-H650 | 0.939 | 0.792 | 0.457 | 0.481 | 0.158
NCI-H520 | 1.35 | 0.955 | 0.745 | 0.503 | 0.175
NCI-H2126 | 1.03 | 0.875 | 0.769 | 0.655 | 0.257
NCI-H2170 | 1.08 | 0.969 | 0.847 | 0.539 | 0.158
ChaGo-K-1 | 1.09 | 0.858 | 0.759 | 0.761 | 0.343
NCI-H1437 | 1.04 | 0.831 | 0.861 | 0.421 | 0.184
IA-LM | 0.976 | 0.723 | 0.963 | 0.349 | 0.0685
PC-3 [JPC-3] | 1.12 | 0.988 | 0.921 | 0.608 | 0.312
NCI-H1944 | 0.927 | 0.707 | 0.57 | 0.341 | 0.21
NCI-H1915 | 1.12 | 0.878 | 0.524 | 0.514 | 0.123
BEN | 1.04 | 0.678 | 0.597 | 0.248 | 0.0942
NCI-H2085 | 1.05 | 0.939 | 0.815 | 0.714 | 0.369
CAL-12T | 1.13 | 1.09 | 0.807 | 0.537 | 0.137
NCI-H2347 | 1.11 | 0.962 | 0.61 | 0.777 | 0.262
EMC-BAC-2 | 0.92 | 0.752 | 0.493 | 0.363 | 0.176
A-427 | 1.15 | 0.972 | 0.862 | 0.517 | 0.176
NCI-H2009 | 1.14 | 0.878 | 0.711 | 0.482 | 0.153
NCI-H647 | 1.16 | 0.731 | 0.539 | 0.199 | 0.0541
EKVX | 1.09 | 1.01 | 0.77 | 0.688 | 0.175
LCLC-97TM1 | 0.979 | 1.07 | 0.711 | 0.715 | 0.1
NCI-H2405 | 1.05 | 1.17 | 1.01 | 0.57 | 0.144
